Assay [1] has as its target cAMP-dependent protein kinase A (Bos taurus) (UniProt P00517+P05131+P31322+P00515).
Description: Activation of cAMP-dependent protein kinase type II

Molecules are shown by their SMILES.

Description for Oryctolagus cuniculus: Activation of cAMP-dependent protein kinase type I

Take `O=P1(O)OC[C@H]2O[C@@H](n3ncc4ccccc43)[C@H](O)[C@@H]2O1`: the K'a in the assay listed under Oryctolagus cuniculus worked out at 0.014; in assay [1] it was 0.048.

`Nc1cccc2c1nnn2[C@@H]1O[C@@H]2COP(=O)(O)O[C@H]2[C@H]1O`: the K'a in the assay listed under Oryctolagus cuniculus worked out at 0.88; in assay [1], 0.93.

Regarding `O=P1(O)OC[C@H]2O[C@@H](n3nnc4ccccc43)[C@H](O)[C@@H]2O1` (stereo in doubt; 14), the figures for the K'a (in the assay listed under Oryctolagus cuniculus; in assay [1]) were 0.64 and 0.88, respectively.

Regarding `O=[N+]([O-])c1cccc2c1cnn2[C@@H]1O[C@@H]2COP(=O)(O)O[C@H]2[C@H]1O`, the K'a in the assay filed under Oryctolagus cuniculus came out at 1.17; in assay [1], 2.5.

Consider `O=P1(O)OC[C@H]2O[C@@H](n3nc4ccccc4n3)[C@H](O)[C@@H]2O1`, for which the K'a in the assay listed under Oryctolagus cuniculus is 0.82; in assay [1], 3.5.

With `Nc1cccc2c1ncn2[C@@H]1O[C@@H]2COP(=O)(O)O[C@H]2[C@H]1O`, the K'a in the assay filed under Oryctolagus cuniculus turned out to be 0.2; in assay [1], 0.67.

On to `O=[N+]([O-])c1cccc2c1nnn2[C@@H]1O[C@@H]2COP(=O)(O)O[C@H]2[C@H]1O`, for which the K'a in the assay listed under Oryctolagus cuniculus was 0.88; in assay [1], 1.

With `O=P1(O)OC[C@H]2O[C@@H](n3nnc4ccccc43)[C@H](O)[C@@H]2O1` (stereo in doubt), the K'a amounted to 0.25 in the assay filed under Oryctolagus cuniculus and 0.7 in assay [1].

Turning to `O=[N+]([O-])c1cccc2c1ncn2[C@@H]1O[C@@H]2COP(=O)(O)O[C@H]2[C@H]1O`, the values for the K'a (in the assay filed under Oryctolagus cuniculus; in assay [1]) were 0.08 and 1.56, respectively.

Take `O=P1(O)OC[C@H]2O[C@@H](n3cc4ccccc4n3)[C@H](O)[C@@H]2O1`: the K'a in the assay listed under Oryctolagus cuniculus is 0.14; in assay [1], 1.4.

As for `Nc1cccc2c1cnn2[C@H]1O[C@@H]2COP(=O)(O)O[C@H]2[C@H]1O`, the K'a amounted to 0.65 in the assay filed under Oryctolagus cuniculus and 0.54 in assay [1].

For the origin of these results see ChEMBL document CHEMBL1126248, “Synthesis and enzymatic activity of some new purine ring system analogues of adenosine 3',5'-cyclic monophosphate” (J Med Chem, 1992).
